We go through one compound from PMC12153356, “An antisense oligomer conjugate with unpredicted bactericidal activity against Fusobacterium nucleatum” (mBio, 2025).

Square brackets hold non-standard residues; d marks the D form. Peptide text beside a SMILES is read from it. * marks the point of attachment. 5TAMRA = CN(C)c1ccc2c(c1)Oc1cc(N(C)C)ccc1C21OC(=O)c2cc(C(=O)*)ccc21; Ahx = NCCCCCC(=O)O; βAla = NCCC(=O)O

The assay has as its system F. nucleatum subsp. nucleatum ATCC 23726 (FNN23). Nature of the assay: CPP-TAMRA uptake by confocal laser scanning microscopy (CLSM). The class given is cell-based, Fusobacterium nucleatum subsp. nucleatum ATCC 23726. The conditions noted are these: 5 µM CPP-TAMRA, FNN23 10^8 CFU/mL in MHB, 37°C, 10, 30 and 60 min, 100 cells from four images, cytoplasmic signal. The text has this: To investigate the efficiency of different cell-penetrating peptides, we excluded a flow cytometry approach to quantify penetration efficiency because upon cell fixation, CPPs were reported to bind to cell membranes and remain attached even after multiple washes, which would result in a false-positive penetration signal in flow cytometry ([118]). Thus, we opted for a microscopy-based investigation with lower throughput but discrimination potential between membrane-associated and cytosolic signals. CPPs were coupled to the fluorophore 5(6)-carboxytetramethylrhodamine (TAMRA) by Peps4LS GmbH, and 200 µM stocks were prepared in house. […] The emission was detected at 685–795 nm for FM 4–64 and 570–620 nm for TAMRA. CLSM images were analyzed using ImageJ. To quantify CPP uptake, 100 cells were chosen out of four images per condition using the bright field image and analyzed for cytosolic TAMRA signal by excluding TAMRA-negative cells and TAMRA signal co-localized with the FM 4–64 signal.

With `CN(C)c1ccc2c(c1)Oc1cc(N(C)C)ccc1C21OC(=O)c2cc(C(=O)N[C@@H](CCCNC(=N)N)C(=O)NCCCCCC(=O)N[C@@H](CCCNC(=N)N)C(=O)N[C@@H](CCCNC(=N)N)C(=O)NCCCCCC(=O)N[C@@H](CCCNC(=N)N)C(=O)N[C@@H](CCCNC(=N)N)C(=O)NCCCCCC(=O)N[C@@H](CCCNC(=N)N)C(=O)N[C@@H](CCCNC(=N)N)C(=O)NCCCCCC(=O)N[C@@H](CCCNC(=N)N)C(=O)NCCCCCC(=O)NCCC(=O)O)ccc21` [(RXR)4XB-TAMRA] (5TAMRA-R[Ahx]RR[Ahx]RR[Ahx]RR[Ahx]R[Ahx][βAla]-OH), the “TAMRA-positive cells (uptake efficiency)” value is 100%.
